Laboratory results published in patent US20150011566A1, “N-PHENYLPIPERAZINE DERIVATIVES THAT ARE ANTAGONISTS OF A1A, A1D ADRENOCEPTORS AND 5-HT1A RECEPTORS FOR THE TREATMENT OF BENIGN PROSTATE HYPERPLASIA, PHARMACEUTICAL COMPOSITIONS CONTAINING THE SAME” (UNIVERSIDADE FEDERAL DO RIO DE JANEIRO-UFRJ, priority 2012, published 2015).
Where two headings read alike, the source gives them in different places.

Columns and labels:
[1] = molecular target: T1, α1B adrenoceptors (Rattus norvegicus, UniProt P15823); assay: Binding of [3H]-prazosin to α1B adrenoceptors (rat liver membranes); conditions: for affinity range for α1B adrenoceptor: in words
T1 construct: from tissue; host or cells: rat liver membranes
T1 sequence (P15823 1-515): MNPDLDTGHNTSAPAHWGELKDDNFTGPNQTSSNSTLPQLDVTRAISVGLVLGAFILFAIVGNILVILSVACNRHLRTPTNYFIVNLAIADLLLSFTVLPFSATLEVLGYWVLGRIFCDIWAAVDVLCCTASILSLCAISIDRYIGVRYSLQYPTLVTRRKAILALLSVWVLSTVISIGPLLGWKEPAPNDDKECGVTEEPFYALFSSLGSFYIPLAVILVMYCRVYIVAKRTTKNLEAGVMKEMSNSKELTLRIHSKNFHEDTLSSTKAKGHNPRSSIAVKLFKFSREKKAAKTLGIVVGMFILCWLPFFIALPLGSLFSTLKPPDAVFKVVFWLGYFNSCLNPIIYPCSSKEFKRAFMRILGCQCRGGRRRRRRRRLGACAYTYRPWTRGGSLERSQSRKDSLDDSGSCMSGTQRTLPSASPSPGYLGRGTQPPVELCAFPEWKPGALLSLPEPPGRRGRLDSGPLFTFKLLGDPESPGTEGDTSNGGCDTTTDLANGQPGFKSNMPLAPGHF
Description: Following the protocol described previously in the literature membrane preparations from rat liver homogenates were obtained. Such membrane preparations are enriched in the adrenoceptor subtype α1B. The tissues obtained as described above (4 Rat livers corresponding to ˜30 g) were thawed and homogenized perforated similarly performed for rabbit liver. The homogenate obtained was filtered through four layers of gauze and then subjected to centrifugation 5,000×g for 20 minutes at 4° C., yielding a supernatant which was subsequently ultracentrifuged at 100,000×g for 60 minutes at 4° C., obtaining a pellet. This pellet was resuspended in buffer free of NaCl and subjected to a further […] under the same conditions.
Binding assays were standardized for α1B adrenoceptors in the same way adrenoceptor binding assays for α1A according to the literature, i.e. saturation and competition assays were performed on membrane preparations from rat liver, in this case using […] protein per tube contained […] suspension, in addition to various concentrations of LDT's (10^−9-10^−6 M).

[2] = molecular target: T2, α1D adrenoceptors (Rattus norvegicus, UniProt P23944); assay: Phenylephrine-induced contraction inhibition in rat aorta (isometric contraction, Schild KB); assay type: cell-based; set-up: CR: concentration ratio CR = EC′50/EC50 (with/without antagonist); conditions: for Kb / log KB ± EPM (M): Schild equation; for CR ± EPM: ratio of EC50 in presence and absence of test substance
T2 construct: the rat thoracic aorta corresponds to a tissue expressing mainly α1D-adrenoceptors; from tissue; host or cells: rat thoracic aorta rings
T2 sequence (P23944 1-561): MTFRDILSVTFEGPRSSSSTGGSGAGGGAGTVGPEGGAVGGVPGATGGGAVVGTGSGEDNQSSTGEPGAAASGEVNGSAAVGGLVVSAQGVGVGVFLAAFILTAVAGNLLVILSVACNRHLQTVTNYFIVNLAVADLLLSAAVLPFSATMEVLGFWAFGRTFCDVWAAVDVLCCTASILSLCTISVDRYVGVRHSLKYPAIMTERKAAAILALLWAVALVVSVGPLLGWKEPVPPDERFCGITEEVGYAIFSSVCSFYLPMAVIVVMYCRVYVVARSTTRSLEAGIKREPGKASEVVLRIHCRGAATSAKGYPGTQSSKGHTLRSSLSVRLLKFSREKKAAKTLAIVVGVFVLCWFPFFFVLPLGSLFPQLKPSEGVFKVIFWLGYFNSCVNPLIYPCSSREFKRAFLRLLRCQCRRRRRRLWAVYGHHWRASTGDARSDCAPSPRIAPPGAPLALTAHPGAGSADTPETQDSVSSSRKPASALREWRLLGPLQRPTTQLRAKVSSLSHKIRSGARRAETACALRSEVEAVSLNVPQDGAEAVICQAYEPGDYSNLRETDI
Description: Isometric contraction assays were performed using Male Wistar rats, aged 2.5-3 months euthanized as described above. The thoracic aorta (tissue enriched in functional α1D adrenergic receptors) was removed, free from adjacent connective and adipose tissues cut in 3 mm segments. […] The aort segments were then subjected to a preload of 20 mN per 60 minutes. After recovery of tissues maintained for 1 hour at rest, it was performed a contraction induced by phenylephrine (PE) 1 μM (α1 adrenergic receptors selective agonist). In this plateau contraction, in order to promote endothelium-dependent relaxation resulting from the activation of the enzyme endothelial nitric oxide synthase (eNOS) and subsequent release of nitric oxide (NO), acetylcholine 1 μM was added. Rings that relaxed at least 80% were considered to have intact endothelium, were used.
Then the preparation was washed and allowed to stand for 1 hour in order to recover the tissue. Then it was performed cumulative curves to phenylephrine (10^−9 to 10^−5 M) in the presence of propranolol 1 μM (β-adrenoceptor blocker receptors) before and after incubation for 1 hour of the LDT's at 10 or 50 nM. In parallel, a temporal control was performed to rule out any artifacts on the measured contraction, where was added only the vehicle (ultrapure water Milli Q®) instead of the substance to be tested. Strictly following the same protocol as the other tanks wherein it was added the LDT's.
The data were scanned in MacLab 8S system connected to the isometric tension transducer Grass FT-03, which recorded the voltage variation in milinewtons (mN) generated throughout the analysis. The digitized data were then analyzed by Chart 3.4/s software program (MacLab, Inc., USA). In the pharmacological screening process, the initial concentration of the used LDT's was 50 nM, which is considered as cut concentration, i.e., substances that have no effect at this concentration would not investigated in this test. […] The ratio of the EC50 value in these two conditions (with and without LDT) matches the third parameter, called “concentration ratio” (or RC).
log(CR−1)=log [B]−log KB (Equation 1)
Where CR=concentration ratio (EC′50/EC50); [B]=‘B’ antagonist concentration; KB=equilibrium dissociation constant of the antagonist ‘B’.
With this in view, the functional tests of contraction in isolated organ model were performed using these tissues. […] Similarly, targeting to rule out any artifacts on the measured contraction, a time control was performed where only the vehicle was added (ultrapure Mili Q® water) in place of the substance to be tested, strictly following the same protocol as the other vats were added to the LDT's (FIG. 1).

[3] = KB (nM), Table 1, test substance at 50 nM (a), 10 nM (b) or 2 nM (c)
[4] = log KB ± EPM (M), Table 1, test substance at 50 nM (a), 10 nM (b) or 2 nM (c)
[5] = Table 4, Cheng-Prusoff, read-out: Ki
[6] = Table 4, read-out: log CI50 ± EPM (converted)
[7] = Table 5, Cheng-Prusoff, read-out: α1B Ki
[8] = Table 2, 50 nM (62-69) or 10 nM (70, 39)
[9] = Table 2, 50 nM (62-69) or 10 nM (70, 39), read-out: KB
[10] = Table 2, phenylephrine curve in presence of LTD 10 nM (70 and 39)
[11] = Table 2, phenylephrine curve in presence of LTD 50 nM (62-69)

Compound | Kb [2, 3] | α1B log IC50 (M) ([1]; Table 5) | Ki [1, 7] | log KB ± EPM (M) [2, 8] | Kb [2, 9] | CR ([2]; Table 2, LTD 50 nM (62-69)) | log CE50 ± EPM (M) LDT [2, 11] | also measured
COc1ccccc1N1CCN(CCc2ccccc2)CC1 [LDT 2] | 2.15 nM | – | – | – | – | – | – | IC50 [1]: 63.1 nM; Ki [1]: 48.7 nM; Kb [2, 4]: 3.09 nM; CR ± EPM ([2]; 50 nM): 24.3 ± 8.7
COc1cccc(CCN2CCN(c3ccccc3OC)CC2)c1 [LDT 3] | 1.78 nM | – | – | – | – | – | – | IC50 [1]: 95.5 nM; Ki [1]: 73.7 nM; CR ± EPM ([2]; 50 nM): 29.1 ± 1.8
COc1ccc(CCN2CCN(c3ccccc3OC)CC2)cc1 [LDT 4] | 3.14 nM | – | – | – | – | – | – | IC50 [1]: 30.2 nM; Ki [1]: 23.3 nM; Kb [2, 4]: 3.39 nM; CR ± EPM ([2]; 50 nM): 16.9 ± 5.5
COc1ccc(CCN2CCN(c3ccccc3OC)CC2)cc1OC [LDT 5] | 0.57 nM | – | – | – | – | – | – | Ki [1, 5]: 12.2 nM; IC50 [1, 6]: 15.8 nM; Kb [2, 4]: 0.589 nM; CR ± EPM ([2]; 10 nM): 18.5 ± 2.5
COc1ccccc1N1CCN(CCC2CCCCC2)CC1 [LDT 6] | – | – | – | – | – | – | – | Ki [1, 5]: 154 nM; IC50 [1, 6]: 200 nM; affinity range for α1B adrenoceptor [1]: range μM
CCOc1ccccc1N1CCN(CCc2ccc3c(c2)OCO3)CC1 [LDT 8] | 0.16 nM | – | – | – | – | – | – | IC50 [1]: 11.7 nM; Ki [1]: 9.07 nM; affinity range for α1B adrenoceptor [1]: nanomolar range; Kb [2, 4]: 0.166 nM; CR ± EPM ([2]; 10 nM): 62.5 ± 15.5
CCN1CCN(c2ccccc2)CC1 [LDT 39] | – | −6.29 ± 0.10 M | 425 nM | −6.85 ± 0.08a M | 141 nM | – | – | CR ([2]; Table 2, LTD 10 nM (70 and 39)): 76.7; log CE50 ± EPM (M) LDT [2, 10]: −4.91 ± 0.05 M
CCN1CCN(c2ccccc2OC)CC1 [LDT 62] | – | −6.27 ± 0.05 M | 448 nM | −8.08 ± 0.02 M | 8.3 nM | 7 | −6.01 ± 0.06 M | –
CCCN1CCN(c2ccccc2OC)CC1 [LDT 63] | – | −6.22 ± 0.05 M | 511 nM | −7.59 ± 0.12b M | 31.5 nM | 3.1 | −6.80 ± 0.18 M | –
CCCCN1CCN(c2ccccc2OC)CC1 [LDT 64] | – | −6.33 ± 0.16 M | 393 nM | −7.93 ± 0.13 M | 11.7 nM | 6.4 | −6.18 ± 0.08 M | –
CCCCCN1CCN(c2ccccc2OC)CC1 [LDT 65] | – | – | – | – | – | 7.0 | −5.89 ± 0.05 M | IC50 [1]: 331 nM; Ki [1]: 277 nM; Kb ([2]; KB (nM), Table 2, 50 nM (62-69) or 10 nM (70, 39)): 8.3 nM
CCCCCCN1CCN(c2ccccc2OC)CC1 [LDT 66] | – | −6.51 ± 0.18 M | 221 nM | −8.78 ± 0.06a M | 1.66 nM | 32 | −5.29 ± 0.07 M | –
CCCCCCCN1CCN(c2ccccc2OC)CC1 [LDT 67] | – | −6.87 ± 0.10 M | 113 nM | −8.74 ± 0.08a M | 1.82 nM | 29.5 | −5.46 ± 0.08 M | –
CCCCCCCCN1CCN(c2ccccc2OC)CC1 [LDT 68] | – | −6.69 ± 0.10 M | 173 nM | −8.36 ± 0.05 M | 4.36 nM | 12.8 | −5.81 ± 0.06 M | –
CCOc1ccccc1N1CCN(CC)CC1 [LDT 69] | – | −6.53 ± 0.11 M | 185 nM | −8.06 ± 0.08 M | 8.71 nM | 6.9 | −5.87 ± 0.07 M | –
CCN1CCN(c2ccccc2O)CC1 [LDT 70] | – | −6.07 ± 0.10 M | 715 nM | −7.07 ± 0.08a M | 85.1 nM | – | – | CR ([2]; Table 2, LTD 10 nM (70 and 39)): 123.6; log CE50 ± EPM (M) LDT [2, 10]: −4.86 ± 0.09 M
CCOc1ccccc1N1CCN(CCc2ccc(OC)c(OC)c2)CC1 [LDT 245] | 1.16 nM | – | – | – | – | – | – | Kb [2, 4]: 1.17 nM
